Experimental data reported in PubChem BioAssay AID330 (DTP/NCI, 2004).
Toxic doses and inconclusive results are not listed. Rule for the calls: active = survival T/C of 150% or more; inactive = T/C below 125% in these data.

Tested on: P388 leukemia ip, CD2F1 mice, survival T/C
Experiment: NCI In Vivo Anticancer Drug Screen. Data for tumor model P388 Leukemia (intraperitoneal) in CD2F1 (CDF1) mice
Conditions: endpoint: median survival time, higher = longer survival
Procedure, shortened: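 Mice carrying the transplanted tumor received test compound or vehicle. Survival was recorded in each group, and the value is the treated-group measurement divided by that of the vehicle-treated control group.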

[1] = dose: 100.0 mg/kg/injection, schedule: Q01DX009 (ip), vehicle: saline with Tween-80
[2] = dose: 200.0 mg/kg/injection, schedule: Q01DX009 (ip), vehicle: saline with Tween-80
[3] = dose: 200.0 mg/kg/injection, schedule: Q01DX005 (ip), vehicle: Klucel (hydroxypropylcellulose) (HPC)
[4] = dose: 60.0 mg/kg/injection, schedule: Q01DX005 (ip), vehicle: Klucel (hydroxypropylcellulose) (HPC)
[5] = dose: 120.0 mg/kg/injection, schedule: Q01DX005 (ip), vehicle: Klucel (hydroxypropylcellulose) (HPC)
[6] = dose: 240.0 mg/kg/injection, schedule: Q01DX005 (ip), vehicle: Klucel (hydroxypropylcellulose) (HPC)
[7] = dose: 60.0 mg/kg/injection, schedule: Q01DX005 (ip), vehicle: saline with Tween-80
[8] = dose: 120.0 mg/kg/injection, schedule: Q01DX005 (ip), vehicle: saline with Tween-80
[9] = dose: 200.0 mg/kg/injection, schedule: Q01DX005 (ip), vehicle: saline with Tween-80
[10] = dose: 50.0 mg/kg/injection, schedule: Q01DX005 (ip), vehicle: saline with Tween-80
[11] = dose: 100.0 mg/kg/injection, schedule: Q01DX005 (ip), vehicle: saline with Tween-80
[12] = dose: 50.0 mg/kg/injection, schedule: Q01DX005 (ip), vehicle: Klucel (hydroxypropylcellulose) (HPC)
[13] = dose: 100.0 mg/kg/injection, schedule: Q01DX005 (ip), vehicle: Klucel (hydroxypropylcellulose) (HPC)
[14] = dose: 240.0 mg/kg/injection, schedule: Q01DX005 (ip), vehicle: saline with Tween-80
[15] = dose: 60.0 mg/kg/injection, schedule: Q01DX005 (ip), vehicle: saline
[16] = dose: 120.0 mg/kg/injection, schedule: Q01DX005 (ip), vehicle: saline
[17] = dose: 240.0 mg/kg/injection, schedule: Q01DX005 (ip), vehicle: saline

Measured: T/C

CC1OC(OCC2OC(Oc3c(-c4ccc(O)cc4)oc4cc(OC5OC(C)C(O)C(O)C5O)cc(O)c4c3=O)C(O)C(O)C2O)C(O)C(O)C1O (stereo not drawn)
inactive: [1] 95 % of control | dose: 100.0 mg/kg/injection, schedule: Q04DX003 (ip), vehicle: saline sonified 90 % of control | [2] 95 % of control | dose: 200.0 mg/kg/injection, schedule: Q04DX003 (ip), vehicle: saline sonified 90 % of control | dose: 400.0 mg/kg/injection, schedule: Q01DX009 (ip), vehicle: saline with Tween-80 95 % of control | dose: 400.0 mg/kg/injection, schedule: Q04DX003 (ip), vehicle: saline sonified 90 % of control

c1cc2c3c(ccc2c2c1OCN(C1CCCCC1)C2)OCN(C1CCCCC1)C3
inactive: dose: 3.12 mg/kg/injection, schedule: Q01DX005 (ip), vehicle: Klucel (hydroxypropylcellulose) (HPC) 96 % of control | dose: 6.25 mg/kg/injection, schedule: Q01DX005 (ip), vehicle: Klucel (hydroxypropylcellulose) (HPC) 91 % of control | dose: 12.5 mg/kg/injection, schedule: Q01DX005 (ip), vehicle: Klucel (hydroxypropylcellulose) (HPC) 90 % of control | [3] 94 % of control

Nc1ccn(C2OC3COC2C3O)c(=O)n1 (stereo not drawn)
inactive: dose: 25.0 mg/kg/injection, schedule: Q01DX009 (ip), vehicle: saline 112 % of control | dose: 50.0 mg/kg/injection, schedule: Q01DX009 (ip), vehicle: saline + alcohol 100 % of control | dose: 50.0 mg/kg/injection, schedule: Q01DX009 (ip), vehicle: saline 110 % of control | dose: 100.0 mg/kg/injection, schedule: Q01DX009 (ip), vehicle: saline + alcohol 105 % of control | dose: 100.0 mg/kg/injection, schedule: Q01DX009 (ip), vehicle: saline 116 % of control | dose: 200.0 mg/kg/injection, schedule: Q01DX009 (ip), vehicle: saline + alcohol 112 % of control | dose: 200.0 mg/kg/injection, schedule: Q01DX009 (ip), vehicle: saline 117 % of control | dose: 400.0 mg/kg/injection, schedule: Q01DX009 (ip), vehicle: saline + alcohol 112 % of control | dose: 400.0 mg/kg/injection, schedule: Q01DX009 (ip), vehicle: saline 122 % of control | dose: 800.0 mg/kg/injection, schedule: Q01DX009 (ip), vehicle: saline + alcohol 114 % of control

O=C1/C(=C/c2cccc3ccccc23)SC(=S)N1Cc1ccco1
inactive: dose: 50.0 mg/kg/injection, schedule: Q01DX009 (ip), vehicle: saline with Tween-80 92 % of control | [1] 92 % of control | [2] 99 % of control

CCc1nc(-c2ccccc2)nc2c1nc(-c1cccc(C)c1)n2Nc1ccccc1
inactive: [4] 97 % of control | [5] 94 % of control | [6] 88 % of control

O=C(Nc1ccc(S(=O)(=O)F)cc1)/C(=C/c1ccc([N+](=O)[O-])cc1)c1ccccc1
inactive: [7] 102 % of control | [8] 97 % of control

CC(C)NC(=O)c1ccc(CBr)cc1
inactive: dose: 1.56 mg/kg/injection, schedule: Q01DX009 (ip), vehicle: other 95 % of control | dose: 3.13 mg/kg/injection, schedule: Q01DX009 (ip), vehicle: other 95 % of control | dose: 6.25 mg/kg/injection, schedule: Q01DX009 (ip), vehicle: other 98 % of control | dose: 12.5 mg/kg/injection, schedule: Q01DX009 (ip), vehicle: other 93 % of control | dose: 25.0 mg/kg/injection, schedule: Q01DX009 (ip), vehicle: other 112 % of control | dose: 50.0 mg/kg/injection, schedule: Q01DX009 (ip), vehicle: other 99 % of control

COc1ccc(C(NCCn2cnc3c2c(=O)n(C)c(=O)n3C)c2ccccc2)cc1 (stereo not drawn)
inactive: dose: 6.25 mg/kg/injection, schedule: Q01DX005 (ip), vehicle: alkali diluted with saline 100 % of control | dose: 12.5 mg/kg/injection, schedule: Q01DX005 (ip), vehicle: alkali diluted with saline 100 % of control | dose: 25.0 mg/kg/injection, schedule: Q01DX005 (ip), vehicle: alkali diluted with saline 96 % of control

CCN(CC)CCN=c1nc(/C=C\C=C\NN(C)C(=S)SC)c(C)nn1C
inactive: dose: 6.25 mg/kg/injection, schedule: Q01DX005 (ip), vehicle: saline with Tween-80 103 % of control | dose: 12.5 mg/kg/injection, schedule: Q01DX005 (ip), vehicle: saline with Tween-80 87 % of control | dose: 25.0 mg/kg/injection, schedule: Q01DX005 (ip), vehicle: saline with Tween-80 89 % of control | [9] 90 % of control

c1nc(N2CCCCC2)c2c3c(sc2n1)CCCC3
inactive: [10] 100 % of control | [11] 91 % of control | [9] 96 % of control

Cc1nc(Nc2ccccc2)c2c(C)c(Cc3ccccc3)[nH]c2n1
inactive: [12] 89 % of control | [13] 86 % of control | [3] 87 % of control

CCSCC1C(=O)C23CC1CCC2C12COC(O)C1C(C)(C)C(O)CC2OC3=O (stereo not drawn)
inactive: dose: 3.12 mg/kg/injection, schedule: Q01DX009 (ip), vehicle: Klucel (hydroxypropylcellulose) (HPC) 103 % of control | dose: 6.25 mg/kg/injection, schedule: Q01DX009 (ip), vehicle: Klucel (hydroxypropylcellulose) (HPC) 107 % of control | dose: 12.5 mg/kg/injection, schedule: Q01DX009 (ip), vehicle: Klucel (hydroxypropylcellulose) (HPC) 103 % of control | dose: 50.0 mg/kg/injection, schedule: Q01DX009 (ip), vehicle: Klucel (hydroxypropylcellulose) (HPC) 109 % of control | dose: 100.0 mg/kg/injection, schedule: Q01DX009 (ip), vehicle: Klucel (hydroxypropylcellulose) (HPC) 107 % of control

CC(=O)Nc1c(Cl)c(Cl)c2c(c1Cl)Cc1cc(Br)ccc1-2
inactive: dose: 100.0 mg/kg/injection, schedule: Q04DX003 (ip), vehicle: saline with Tween-80 109 % of control

CC(C)(C)NC(=O)Nc1cccc(C(=O)O)c1
inactive: [7] 99 % of control | [8] 96 % of control | [14] 105 % of control

COc1ccc(/C=N/N2CN(C(C)C(=O)O)P(Nc3ncccn3)N=C2N)cc1OC (stereo not drawn)
inactive: [15] 104 % of control | [16] 103 % of control | [17] 108 % of control

CCOC(=O)C(NC(C)=O)(C(=O)OCC)C1CCCC1=O (stereo not drawn)
inactive: [15] 94 % of control | [16] 96 % of control | [17] 100 % of control

COC(=O)/C(C(C)=O)=C(\OC(C)=O)c1ccc(OC)c(OC)c1
inactive: [7] 94 % of control | [8] 100 % of control | [14] 92 % of control

CC(C)(C)C(=O)OCn1cc2c(=O)[nH]cnc2n1
inactive: [4] 101 % of control | [5] 100 % of control | [6] 104 % of control

NNc1ccc2nccn2n1
inactive: dose: 6.25 mg/kg/injection, schedule: Q01DX009 (ip), vehicle: saline with Tween-80 95 % of control | dose: 12.5 mg/kg/injection, schedule: Q01DX009 (ip), vehicle: saline with Tween-80 101 % of control | dose: 25.0 mg/kg/injection, schedule: Q01DX009 (ip), vehicle: saline with Tween-80 94 % of control

Cc1c(N=Nc2ccc(Br)cc2)c(-c2ccccc2)nn1C(N)=S
inactive: [12] 102 % of control | [13] 105 % of control

CCn1c(Cl)c(/C=N\Nc2ccc([N+](=O)[O-])cc2)c2ccccc21
inactive: dose: 100.0 mg/kg/injection, schedule: Q01DX001 (ip), vehicle: saline 94 % of control | dose: 200.0 mg/kg/injection, schedule: Q01DX001 (ip), vehicle: saline 95 % of control | dose: 400.0 mg/kg/injection, schedule: Q01DX001 (ip), vehicle: saline 95 % of control

COc1cc(/C=N/N2CN(C(C)C(=O)O)B(Nc3ncccn3)N=C2N)cc(OC)c1 (stereo not drawn)
inactive: [15] 103 % of control | [16] 111 % of control | [17] 112 % of control

O=S(=O)(Nc1ccnn1-c1ccccc1)c1ccc(NC(=S)Nc2ccccc2)cc1
inactive: [10] 96 % of control | [11] 93 % of control | [9] 91 % of control

CC1(C)CCO/C(=C\C(=O)N2Cc3cc4ccccc4nc3C2)N1
inactive: dose: 18.75 mg/kg/injection, schedule: Q01DX001 (ip), vehicle: saline sonified 95 % of control | dose: 37.5 mg/kg/injection, schedule: Q01DX001 (ip), vehicle: saline sonified 95 % of control | dose: 75.0 mg/kg/injection, schedule: Q01DX001 (ip), vehicle: saline sonified 100 % of control

CC1(C)COC2(OCC(COc3ccccc3)O2)C1O (stereo not drawn)
inactive: [4] 104 % of control | [5] 98 % of control | [6] 98 % of control
